The values below come from US9884856B2, “Crystal form of Dabrafenib mesylate and preparation method thereof” (Hangzhou Pushai Pharmaceutical Technology Co., LTD., priority 2013, dated 2018).

“And” between values parts separate entries of the source, which are not always exact repeats. Equal values may be shown once. “Also recorded” adds a separate entry of the source.

Data set [1] can be described thus: Decomposition temperature by TGA. The data set is classed as physicochemical. As to conditions: methanesulfonate. As to the method: The thermogravimetric analysis (TGA) data are collected by TA Instruments Q500 TGA; the instrument control software is Thermal Advantage and the analysis software is Universal Analysis. Generally, take 5˜15 mg sample and place it in a platinum pan, adopt the segmental high-resolution testing mode, and under the protection of 50 mL/min dry N2, heat the sample from room temperature to 350° C. at the heating rate of 10° C./min, the weight changes of the sample during the course are recorded by TA software simultaneously.
Compare decomposition temperatures obtained by TGA tests.

The nature of data set [2]: Storage stability of crystal forms (XRPD before and after placement). Format: physicochemical. As to conditions: methanesulfonate. The procedure:
(§1) The stability is performed by comparing the storage stability and the stirring test in water on crystalline forms.
The storage stability is performed by placing the samples under a constant condition (i.e. under constant humidity or constant temperature) for a certain period of time, and then comparing their XRPDs before and after placement.

The nature of data set [3]: Stirring test in water (XRPD comparison). The data set is classed as physicochemical. The following applies: methanesulfonate; for Stirring test in water: form after stirring: 10 mg in 1 mL water; for Stability in water or aqueous system(s): general statement. The procedure:
as §1
The stirring test in water is performed by, for each crystalline form, adding an equal amount of the sample (10 mg) to an equal amount of water (1 mL) to form a suspension, stirring the suspensions for a certain time at room temperature, and then comparing their XRPDs.

A short description of data set [4]: Hygroscopicity by dynamic vapor sorption (DVS). Format: physicochemical. As to the method:
The dynamic vapor sorption analysis (DVS) data are collected by TA Instruments Q5000 TGA; the instrument control software is Thermal Advantage and the analysis software is Universal Analysis. Generally, take 1˜10 mg of the sample and place it in a platinum pan, and the weight changes of the sample are recorded during the course of the relative humidity changing from 0% to 80% and then to 0%. According to the specifics of the samples, different adsorption and desorption steps may be used.
Compare hygroscopicity in weight changes of samples between 20%-80% RH obtained by DVS tests.

A short description of data set [5]: Dissolution profile in ultrapure water (HPLC). Format: physicochemical. As to conditions: for Dissolution: ultrapure water. As to the method: The analysis data of high performance liquid chromatography (HPLC) are collected by Agilent 1260 with the chemical working station of B.04. The corresponding HPLC parameters in this research are: chromatographic column SB-C18 250×4.6 mm 5 μm; column temperature 35° C.; flow rate 0.6 mL/min; flow phase as shown below; wavelength 254 nm; sample inject volume 20 μl; operation time 30 min.
The comparison of dissolution profiles is performed by the following procedures: place about 6 mg the sample in a […], add 15 mL ultrapure water, and then seal the vial. A suspension is obtained from sonication with a working power of 40 Khz at room temperature, then take 1 mL of the suspension at 10 min, 30 min, 2 hr and 6 hr, respectively; filter it with 0.45 μm organic filter membrane to, take the filtrate to be measured by HPLC; stir the remaining suspension for 16 hr at room temperature, and then filter it with 0.45 μm organic filter membrane, take the filtrate to be measured by HPLC. FIG. 15 is the comparison plot of dissolution profiles of Crystal Form IV and the Known Crystal Form I in Experimental Example 1 (▴ refers to Crystal Form IV, ▮ refers to the Known Crystal Form I).

Data set [6] in a line: Stability during wet granulation in formulation process (XRPD). Format: physicochemical. The following applies: methanesulfonate; for Form of API in wet granule sample (XRPD): wet granulation with 50% aqueous ethanol, lactose monohydrate, microcrystalline cellulose. The source says:
The stability of the Known Crystal Form I of Dabrafenib methanesulfonate and Crystal Form IV of the present invention during wet granulation in formulation process was studied.
Wet granulation experiments in the formulation process were parallel experiments. The specific steps are:
1) Blend API (the Known Crystal Form I or Crystal Form IV of the present invention), lactose (monohydrate) and microcrystalline cellulose uniformly.
2) Make the above mixture into soft materials by using appropriate amount of 50% aqueous ethanol solution, screen to produce wet granules.
3) Dry the wet granules and then granulate them, blend with polyethylene glycol 6000 uniformly and then compress them into tablets.
Characterize the Known Crystal Form I and Crystal Form IV of the present invention samples obtained from the formulation process of: (1) the sample obtained from physically mixing lactose monohydrate and microcrystalline cellulose at the ratios per the formulation; (2) the sample obtained from physically mixing of API, lactose monohydrate and microcrystalline cellulose at the ratios per the formulation; (3) the wet granule sample obtained from the wet granulation process (excluding the compressed tablets in Step 3). See XRPDs in FIG. 16 and FIG. 17.

In data set [7] the test system is one or more Raf-family kinases. The following applies: disclosed in WO2009/137391 and CN200980126781.6; cited from earlier work.
In data set [8] the test system is BRAFV600E-mutan melanoma. As to conditions: patients with BRAFV600E-mutan melanoma; cited from earlier work.
Where [9] appears, read: stored for 1 month at room temperature - 97% RH.
The mark [10] stands for this setting: stored for 1 month at room temperature.
The mark [11] stands for this setting: stirred 15 min at room temperature.
The mark [12] stands for this setting: 6 hours + 16 hours stirring at room temperature, methanesulfonate.
Where [13] appears, read: sonication, room temperature, 10 minutes, methanesulfonate.
The mark [14] stands for this setting: sonication, room temperature, 30 minutes, methanesulfonate.
Setting [15] is: sonication, room temperature, 2 hours, methanesulfonate.
The mark [16] stands for this setting: sonication, room temperature, 6 hours, methanesulfonate.

The compound `CC(C)(C)c1nc(-c2cccc(NS(=O)(=O)c3c(F)cccc3F)c2F)c(-c2ccnc(N)n2)s1` [Crystal Form II, N-[3-[5-(2-amino-4-pyrimidinyl)-2-(tert-butyl)-thiazol-4-yl]-2-fluorophenyl]-2,6-difluorobenzene sulfonamide methanesulfonate] yielded a Decomposition temperature in data set [1] of 287 °C.

Consider `CC(C)(C)c1nc(-c2cccc(NS(=O)(=O)c3c(F)cccc3F)c2F)c(-c2ccnc(N)n2)s1` [Crystal Form IV, N-[3-[5-(2-amino-4-pyrimidinyl)-2-(tert-butyl)-thiazol-4-yl]-2-fluorophenyl]-2,6-difluorobenzene sulfonamide methanesulfonate], for which the “Storage stability (crystal form)” value was “remained unchanged and stable and 97% RH, respectively, the crystal forms remained unchanged” in data set [2] (setting [9]); “remained unchanged and stable and 97% RH, respectively, the crystal forms remained unchanged” in data set [2] (setting [10]). Further, the “Stirring test in water: form after stirring” value is “still remained as methanesulfonate; also recorded: still remains its Crystal Form IV of methanesulfonate; also recorded: remained as methanesulfonate and after” in data set [3] (setting [11]); “converted to its free base; also recorded: converts to its free base monohydrate; also recorded: free base (FIG. 14)” in data set [3] (stirred overnight at room temperature). In addition, the “Stability in water or aqueous system(s)” value in data set [3] is “better stability in water or aqueous system(s)”. Also, the “Weight change (dynamic vapor sorption)” value in data set [4] (between 20% RH-80% RH) worked out at 2.0%. Besides, in data set [5] (0~22 h, any test point, methanesulfonate), the “Dissolution rate / dissolution quantity compared with the Known Crystal Form I” value is on record as “higher than that of the Known Crystal Form I at any test point; also recorded: larger than that of the Known Crystal Form I at any test point”. Further, the “Time to the end point in water during dissolution” value in data set [5] (compared with the Known Crystal Form I) was “Form IV is shorter than that of the Known Crystal Form I”. The Dissolution stood at 0.000178 mg/mL in data set [5] (setting [12]); 0.000532 mg/mL in data set [5] (setting [13]); 0.000303 mg/mL in data set [5] (setting [14]); 0.000376 mg/mL in data set [5] (setting [15]); 0.000488 mg/mL in data set [5] (setting [16]). Moreover, in data set [6], the “Stability in the wet granulation process” value is “stable”. The “Form of API in wet granule sample (XRPD)” value in data set [6] was “remained as Crystal Form IV”.

Consider `CC(C)(C)c1nc(-c2cccc(NS(=O)(=O)c3c(F)cccc3F)c2F)c(-c2ccnc(N)n2)s1` [Dabrafenib methanesulfonate, N-[3-[5-(2-amino-4-pyrimidinyl)-2-(tert-butyl)-thiazol-4-yl]-2-fluorophenyl]-2,6-difluorobenzene sulfonamide methanesulfonate], for which the “Inhibitory effects on Raf-family kinases” value in data set [7] is “exhibited inhibitory effects”.

As to `CC(C)(C)c1nc(-c2cccc(NS(=O)(=O)c3c(F)cccc3F)c2F)c(-c2ccnc(N)n2)s1` [Dabrafenib], in data set [8], the Safety profile result was “acceptable safety profile” and the Therapeutic activity entry is “has therapeutic activities”.

As to `CC(C)(C)c1nc(-c2cccc(NS(=O)(=O)c3c(F)cccc3F)c2F)c(-c2ccnc(N)n2)s1` [Known Crystal Form I, N-[3-[5-(2-amino-4-pyrimidinyl)-2-(tert-butyl)-thiazol-4-yl]-2-fluorophenyl]-2,6-difluorobenzene sulfonamide methanesulfonate, reference compound], the “Storage stability (crystal form)” value in data set [2] (setting [9]) was “remained unchanged and 97% RH, respectively, the crystal forms remained unchanged”; in data set [2] (setting [10]), “remained unchanged and 97% RH, respectively, the crystal forms remained unchanged”. Further, the “Stirring test in water: form after stirring” value in data set [3] (setting [11]) is reported as “consistent with the above-mentioned Dabrafenib free base hydrate; also recorded: converted to its free base; also recorded: converts to its free base monohydrate; also recorded: min, it converted to the free”. Besides, in data set [3], the “Stability in water or aqueous system(s)” value was “readily converts to free base”. Also, in data set [4] (25° C. and 20-80% RH, methanesulfonate), the “Form stability under humidity” value was “stable at 25 °C and 20-”. Further, in data set [4] (DVS), the Hygroscopicity result was “Non-hygroscopic; the form is”. For the same compound, the Dissolution stood at 7.48e-05 mg/mL in data set [5] (setting [12]); 0.00012 mg/mL in data set [5] (setting [13]); 7.23e-05 mg/mL in data set [5] (setting [14]); 9.28e-05 mg/mL in data set [5] (setting [15]); 8.88e-05 mg/mL in data set [5] (setting [16]). In data set [6], the “Stability in the wet granulation process” value was “unstable”. The “Form of API in wet granule sample (XRPD)” value in data set [6] is “partially or totally converted to Dabrafenib free base hydrate”.
